Reference: PubChem BioAssay AID2060626 (Molecular Pharmacology Branch, DTP, NCI, 2025)
One block for each compound: values may come before it.

System: 168753-222-R-J1-PDC complex spheroid viability
Experiment: Anticancer human tumor 168753-222-R-J1-PDC patient-derived bladder carcinoma cell line growth inhibition [CLK]
Details: for IC50: curve of first compound; for viability, T/C: stronger effect = lower value
Method in brief: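 Multi-cell-type spheroids combined patient-derived tumor cells with HUVEC endothelial cells and human mesenchymal stem cells. Paired agents were dosed in half-log steps down from about clinical Cmax, or from 10 microM where Cmax was unknown.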

[1] = second compound 0.0316 µM, first compound 0.0316 µM
[2] = second compound 0.0316 µM, first compound 0.1 µM
[3] = second compound 0.1 µM, first compound 0.0316 µM
[4] = second compound 0.1 µM, first compound 0.1 µM
[5] = second compound 0.316 µM, first compound 0.0316 µM
[6] = second compound 0.316 µM, first compound 0.1 µM
[7] = second compound 1 µM, first compound 0.0316 µM
[8] = second compound 1 µM, first compound 0.1 µM
[9] = second compound 3.16 µM, first compound 0.0316 µM
[10] = second compound 3.16 µM, first compound 0.1 µM
[11] = second compound 10 µM, first compound 0.0316 µM
[12] = second compound 10 µM, first compound 0.1 µM
[13] = second compound 0.0316 µM, first compound 0.316 µM
[14] = second compound 0.0316 µM, first compound 1 µM
[15] = second compound 0.0316 µM, first compound 3.16 µM
[16] = second compound 0.0316 µM, first compound 10 µM
[17] = second compound 0.1 µM, first compound 0.316 µM
[18] = second compound 0.1 µM, first compound 1 µM
[19] = second compound 0.1 µM, first compound 3.16 µM
[20] = second compound 0.1 µM, first compound 10 µM
[21] = second compound 0.316 µM, first compound 0.316 µM
[22] = second compound 0.316 µM, first compound 1 µM
[23] = second compound 0.316 µM, first compound 3.16 µM
[24] = second compound 0.316 µM, first compound 10 µM
[25] = second compound 1 µM, first compound 0.316 µM
[26] = second compound 1 µM, first compound 1 µM
[27] = second compound 1 µM, first compound 3.16 µM
[28] = second compound 1 µM, first compound 10 µM
[29] = second compound 3.16 µM, first compound 0.316 µM
[30] = second compound 3.16 µM, first compound 1 µM
[31] = second compound 3.16 µM, first compound 3.16 µM
[32] = second compound 3.16 µM, first compound 10 µM
[33] = second compound 10 µM, first compound 0.316 µM
[34] = second compound 10 µM, first compound 1 µM
[35] = second compound 10 µM, first compound 3.16 µM
[36] = second compound 10 µM, first compound 10 µM
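Also: viability measured after seven days of drug exposure.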
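For viability, T/C in this document: luminescence signal used as surrogate for viable cell amount; 100% = DMSO vehicle control wells.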

IC50 (second compound 0.0316 µM): > 100 nM
IC50 (second compound 0.1 µM): > 100 nM
IC50 (second compound 0.316 µM): > 100 nM
IC50 (second compound 1 µM): < 0.316 nM
IC50 (second compound 3.16 µM): < 0.316 nM
IC50 (second compound 10 µM): < 0.316 nM
SMILES: Cn1ncnc1[C@H]1c2n[nH]c(=O)c3cc(F)cc(c23)N[C@@H]1c1ccc(F)cc1 + CNC(=O)c1ccc(Nc2nc(OC3CCCC3)c3c(-c4ccc5nc(C)oc5c4)c[nH]c3n2)c(OC)c1
viability, T/C (second compound 0.0316 µM, first compound 0.000316 µM): 95%
viability, T/C (second compound 0.0316 µM, first compound 0.001 µM): 116%
viability, T/C (second compound 0.0316 µM, first compound 0.00316 µM): 110%
viability, T/C (second compound 0.0316 µM, first compound 0.01 µM): 113%
viability, T/C [1]: 104%
viability, T/C [2]: 108%
viability, T/C (second compound 0.1 µM, first compound 0.000316 µM): 96.8%
viability, T/C (second compound 0.1 µM, first compound 0.001 µM): 93.6%
viability, T/C (second compound 0.1 µM, first compound 0.00316 µM): 91.7%
viability, T/C (second compound 0.1 µM, first compound 0.01 µM): 103%
viability, T/C [3]: 103%
viability, T/C [4]: 92.6%
viability, T/C (second compound 0.316 µM, first compound 0.000316 µM): 66.3%
viability, T/C (second compound 0.316 µM, first compound 0.001 µM): 72%
viability, T/C (second compound 0.316 µM, first compound 0.00316 µM): 77.2%
viability, T/C (second compound 0.316 µM, first compound 0.01 µM): 85.2%
viability, T/C [5]: 82.1%
viability, T/C [6]: 77.2%
viability, T/C (second compound 1 µM, first compound 0.000316 µM): 33.9%
viability, T/C (second compound 1 µM, first compound 0.001 µM): 32%
viability, T/C (second compound 1 µM, first compound 0.00316 µM): 30.6%
viability, T/C (second compound 1 µM, first compound 0.01 µM): 28%
viability, T/C [7]: 31.9%
viability, T/C [8]: 42%
viability, T/C (second compound 3.16 µM, first compound 0.000316 µM): 22.6%
viability, T/C (second compound 3.16 µM, first compound 0.001 µM): 18.6%
viability, T/C (second compound 3.16 µM, first compound 0.00316 µM): 19.6%
viability, T/C (second compound 3.16 µM, first compound 0.01 µM): 18.7%
viability, T/C [9]: 19.8%
viability, T/C [10]: 21.5%
viability, T/C (second compound 10 µM, first compound 0.000316 µM): 15.8%
viability, T/C (second compound 10 µM, first compound 0.001 µM): 17.3%
viability, T/C (second compound 10 µM, first compound 0.00316 µM): 19.3%
viability, T/C (second compound 10 µM, first compound 0.01 µM): 16.8%
viability, T/C [11]: 16.3%
viability, T/C [12]: 20.5%

IC50 (second compound 0.0316 µM): 975 nM
IC50 (second compound 0.1 µM): 629 nM
IC50 (second compound 0.316 µM): 157 nM
IC50 (second compound 1 µM): < 31.6 nM
IC50 (second compound 3.16 µM): < 31.6 nM
IC50 (second compound 10 µM): < 31.6 nM
SMILES: Nc1ccn(C2OC(CO)C(O)C2(F)F)c(=O)n1 (stereo unspecified) + CNC(=O)c1ccc(Nc2nc(OC3CCCC3)c3c(-c4ccc5nc(C)oc5c4)c[nH]c3n2)c(OC)c1
viability, T/C [1]: 95.2%
viability, T/C [2]: 73.2%
viability, T/C [13]: 48.7%
viability, T/C [14]: 57.2%
viability, T/C [15]: 51.2%
viability, T/C [16]: 37.9%
viability, T/C [3]: 88.4%
viability, T/C [4]: 75.7%
viability, T/C [17]: 50.3%
viability, T/C [18]: 49.9%
viability, T/C [19]: 34.2%
viability, T/C [20]: 25.4%
viability, T/C [5]: 84.2%
viability, T/C [6]: 64.5%
viability, T/C [21]: 28%
viability, T/C [22]: 17.1%
viability, T/C [23]: 26.8%
viability, T/C [24]: 22.1%
viability, T/C [7]: 43.5%
viability, T/C [8]: 18.9%
viability, T/C [25]: 17.9%
viability, T/C [26]: 16.4%
viability, T/C [27]: 16.9%
viability, T/C [28]: 17.4%
viability, T/C [9]: 21%
viability, T/C [10]: 18.4%
viability, T/C [29]: 18%
viability, T/C [30]: 16.8%
viability, T/C [31]: 16.4%
viability, T/C [32]: 15.5%
viability, T/C [11]: 18.2%
viability, T/C [12]: 18.4%
viability, T/C [33]: 17.4%
viability, T/C [34]: 15.4%
viability, T/C [35]: 17.1%
viability, T/C [36]: 16.2%

IC50 (second compound 0.0316 µM): > 10000 nM
IC50 (second compound 0.1 µM): > 10000 nM
IC50 (second compound 0.316 µM): > 10000 nM
IC50 (second compound 1 µM): < 31.6 nM
IC50 (second compound 3.16 µM): < 31.6 nM
IC50 (second compound 10 µM): < 31.6 nM
SMILES: O=c1[nH]cc(F)c(=O)[nH]1 + CNC(=O)c1ccc(Nc2nc(OC3CCCC3)c3c(-c4ccc5nc(C)oc5c4)c[nH]c3n2)c(OC)c1
viability, T/C [1]: 110%
viability, T/C [2]: 113%
viability, T/C [13]: 106%
viability, T/C [14]: 108%
viability, T/C [15]: 92.3%
viability, T/C [16]: 98.5%
viability, T/C [3]: 92.3%
viability, T/C [4]: 94.8%
viability, T/C [17]: 86.8%
viability, T/C [18]: 115%
viability, T/C [19]: 90.4%
viability, T/C [20]: 85.1%
viability, T/C [5]: 83.6%
viability, T/C [6]: 77.3%
viability, T/C [21]: 66.5%
viability, T/C [22]: 73.4%
viability, T/C [23]: 68.8%
viability, T/C [24]: 67%
viability, T/C [7]: 42.1%
viability, T/C [8]: 36%
viability, T/C [25]: 27.9%
viability, T/C [26]: 28.2%
viability, T/C [27]: 31.7%
viability, T/C [28]: 27.7%
viability, T/C [9]: 20.3%
viability, T/C [10]: 18.1%
viability, T/C [29]: 19.9%
viability, T/C [30]: 15.6%
viability, T/C [31]: 18.4%
viability, T/C [32]: 24.6%
viability, T/C [11]: 17.1%
viability, T/C [12]: 17.1%
viability, T/C [33]: 18.7%
viability, T/C [34]: 15.7%
viability, T/C [35]: 18.6%
viability, T/C [36]: 23.5%
